The structures appear in SMILES notation.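 How tested: cells in 96-well plates exposed to compound for 48 hours at five concentrations. TGI: total growth inhibition.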

Common to all, as to test: NCI anticancer screen, dose series, 48 h
Assay [1] has as its system HCC-2998 colon.
Assay [2] concerns HS 578T breast.
In assay [3] the test system is MOLT-4 leukemia.
For assay [4], the system named is NCI-H460 lung.
The subject of assay [5] is NCI/ADR-RES ovarian.
The subject of assay [6] is OVCAR-8 ovarian.
Assay [7] concerns SF-539 CNS.
For assay [8], the system named is SK-MEL-2 melanoma.
Assay [9] has as its system SN12C renal.
Assay [10] has as its system TK-10 renal.

For `c1ncn(C23C4C5C6C4C2C6C53)n1` (stereo not given), the TGI in [1], in assay [2], in [3], in [4], in assay [5] and in assay [6] was greater than 100 µM in each case. Besides, the TGI in [7], in assay [8], in assay [9] and in assay [10] was greater than 100 µM throughout.
As to `CC1CC[C@@]2(OC1)OC1C[C@H]3[C@@H]4CC=C5CC(OC6OC(CO)C(OC7OC(CO)C(O)C(OC8OCC(O)C(O)C8O)C7OC7OC(CO)C(OC8OC(C)C(OC9OC(C)C(O)C(O)C9O)C(O)C8O)C(O)C7O)C(O)C6O)CCC5(C)[C@H]4CCC3(C)C1[C@@H]2C` (stereo not given in full), the TGI in assay [1] was found to be 14.1 µM; in assay [2] it was 17.8 µM; in assay [3] it was 24.7 µM; in assay [4] it was 20.2 µM; in assay [5], 17.8 µM; in assay [6], 19.4 µM. Besides, the TGI in [7] came to 12.7 µM; in [8] it was 13.5 µM; in assay [9], 17 µM; in assay [10] it was 15.8 µM.
On to `CC(=O)NC1C(OCc2ccccc2)OC(CO)C(O)C1OCC(=O)N1CCCC1C(=O)N[C@@H](CCC(=O)NCCCCNc1c2ccccc2nc2cccc([N+](=O)[O-])c12)C(N)=O` (stereo not given in full), for which the TGI is 52.4 µM in assay [1]; 74.8 µM in [2]; greater than 100 µM in [3]; 61.4 µM in assay [4]; greater than 100 µM in assay [5]; greater than 100 µM in [6]. In addition, the TGI in assay [7] was greater than 100 µM; in assay [8] it was 32.7 µM; in assay [9], greater than 100 µM; in assay [10], greater than 100 µM.
Consider `N#Cc1c(-c2ccc(Cl)cc2)c2c(nn3c4ccc5ccccc5c4nnc23)[nH]c1=O`, for which the TGI in assay [1] was 8.87 µM; in assay [2] it was 6.54 µM; in assay [3] it was greater than 46.4 µM; in [4], 16.2 µM; in assay [5], 26 µM; in [6], 6.98 µM. Also, the TGI in assay [7] was 3.96 µM; in [8], 5.77 µM; in assay [9], 12.2 µM; in [10], greater than 100 µM.
In the case of `CCN(CCCOc1ccccc1)CCN(CC)CCCOc1ccccc1`, the TGI came to 48.4 µM in assay [1]; 30.4 µM in assay [2]; 16.8 µM in assay [3]; 34.9 µM in [4]; 46.8 µM in assay [5]; 38 µM in assay [6]. Further, the TGI in [7] turned out to be 24.7 µM; in [8], 32.3 µM; in [9], 44.8 µM; in assay [10], 27.1 µM.
In the case of `OC1[C@@H]2[C@@H](O)CCCN2C[C@@H](O)[C@H]1O` (stereo not given in full), the TGI in assay [1], in assay [2], in assay [3], in [4], in [5] and in assay [6] was greater than 100 µM in each case. For the same molecule, the TGI in assay [7], in assay [8], in assay [9] and in [10] was greater than 100 µM in each case.
Take `Cc1ccc(Nc2nc3[nH]ccc3c(=O)[nH]2)cc1`: the TGI in [1], in [2], in assay [3], in assay [4], in assay [5] and in assay [6] was greater than 100 µM each time. Further, the TGI in assay [7], in assay [8], in assay [9] and in assay [10] was greater than 100 µM in each case.
With `C=CCn1c(=O)c(C)cn(COCCO)c1=O`, the TGI in [1], in [2], in assay [3], in assay [4], in [5] and in assay [6] was greater than 100 µM in each case. For the same molecule, the TGI in assay [7], in assay [8], in [9] and in assay [10] was greater than 100 µM each time.
With `O=C1c2cccc([N+](=O)[O-])c2C(=O)N1Cc1ccccc1`, the TGI in [1], in assay [2], in [3], in assay [4], in [5] and in assay [6] was greater than 100 µM in each case. The TGI in [7], in assay [8], in [9] and in [10] was greater than 100 µM throughout.
As for `CN(C)CC(O)c1ccc(Cl)c2ccccc12` (stereo not given), the TGI in assay [1] was 29.9 µM; in [2], greater than 100 µM; in assay [3], 55.8 µM; in [4], greater than 100 µM; in assay [5] it was greater than 100 µM; in assay [6] it was greater than 100 µM. Further, the TGI is greater than 100 µM in [7], 39.7 µM in assay [8], greater than 100 µM in [9] and greater than 94 µM in assay [10].
Turning to `O=C(O)CN(CC(=O)O)C1CCCCC1N1CC(=O)OC(=O)C1` (stereo not given), the TGI in assay [1], in assay [2], in assay [3], in assay [4], in [5] and in assay [6] was greater than 100 µM in each case. For the same molecule, the TGI in assay [7], in assay [8], in assay [9] and in assay [10] was greater than 100 µM in each case.
Turning to `CC(C)(C)c1ccc(OCCOc2ccc(C(C)(C)C)cc2N)c(N)c1`, the TGI in assay [1], in assay [2], in [3], in [4], in assay [5] and in assay [6] was greater than 100 µM in each case. In addition, the TGI in assay [7], in assay [8], in assay [9] and in [10] was greater than 100 µM each time.

Source of the values: PubChem BioAssay (NCI).
